Test results from patent US4332794A, “6"-Deoxydibekacin, 4",6"-dideoxydibekacin and 1-N-aminoacyl derivatives thereof, and the production of these new compounds” (Zaidan Hojin Biseibutsu Kagaku Kenkyu Kai, priority 1979, dated 1982).

Assays:
[1] = test system: Staphylococcus aureus Smith; test: MIC, serial dilution on nutrient agar; format: cell-based; settings: 37° C., 18 hours
[2] = test system: Escherichia coli NIHJ; test: MIC, serial dilution on nutrient agar; format: cell-based; settings: 18 h
[3] = test system: Pseudomonas aeruginosa H11; test: MIC, serial dilution on nutrient agar; format: cell-based; settings: H11, 18 h
[4] = test system: Pseudomonas aeruginosa TI-13; test: MIC, serial dilution on nutrient agar; format: cell-based; settings: TI13, 18 h
[5] = test system: Escherichia coli K-12; test: MIC, serial dilution on nutrient agar; format: cell-based; settings: K12, 18 h
[6] = test system: Escherichia coli K-12 LA 290 R64; test: MIC, serial dilution on nutrient agar; format: cell-based; settings: K12LA290R64, 18 h
[7] = test system: Bacillus cereus ATCC 10702; test: MIC, serial dilution on nutrient agar; format: cell-based; settings: ATCC10702, nutrient agar, 37° C., 18 hours, read-out: MIC
[8] = test system: Pseudomonas aeruginosa H9; test: MIC, serial dilution on nutrient agar; format: cell-based; settings: H9, 18 h
[9] = test system: Escherichia coli K-12 R 388; test: MIC, serial dilution on nutrient agar; format: cell-based; settings: K12R388, 18 h
[10] = test system: Pseudomonas aeruginosa K-Ps102; test: MIC, serial dilution on nutrient agar; format: cell-based; settings: KPS102, nutrient agar, 37° C., 18 hours, read-out: MIC
[11] = test system: Staphylococcus aureus APO1; test: MIC, serial dilution on nutrient agar; format: cell-based; settings: APO1, 18 h
[12] = test system: Escherichia coli W677; test: MIC, serial dilution on nutrient agar; format: cell-based; settings: W677, 18 h
[13] = test system: Pseudomonas aeruginosa A3; test: MIC, serial dilution on nutrient agar; format: cell-based; settings: A3, nutrient agar, 37° C., 18 hours, read-out: MIC
[14] = test system: Corynebacterium bovis 1810; test: MIC, serial dilution on nutrient agar; format: cell-based; settings: Corynebacterium bovis, 1810; nutrient agar, 37° C., 18 hours; read-out: MIC
[15] = test system: Pseudomonas aeruginosa B-13; test: MIC, serial dilution on nutrient agar; format: cell-based; settings: B13, nutrient agar, 37° C., 18 hours, read-out: MIC
[16] = test system: Mycobacterium smegmatis ATCC 607; test: MIC, serial dilution on nutrient agar; format: cell-based; settings: Mycolicibacterium smegmatis, ATCC607, 18 h
[17] = test system: Salmonella enteritidis 1891; test: MIC, serial dilution on nutrient agar; format: cell-based; settings: Salmonella enterica, nutrient agar, 37° C., 18 hours, read-out: MIC
[18] = test system: Pseudomonas aeruginosa ROS134/PU21; test: microbe, parasite or virus in culture; format: cell-based; settings: ROS134/PU21, 18 h
[19] = test system: Escherichia coli JR255; test: microbe, parasite or virus in culture; format: cell-based; settings: JR255, 18 h
[20] = test system: Escherichia coli K-12 LA 290 R56; test: microbe, parasite or virus in culture; format: cell-based; settings: K12LA290R56, 18 h
[21] = test system: Escherichia coli K-12 LA 290 R55; test: microbe, parasite or virus in culture; format: cell-based; settings: K12LA290R55, 18 h
[22] = test system: Pseudomonas aeruginosa PST1; test: MIC, serial dilution on nutrient agar; format: cell-based; settings: PST1, 18 h
[23] = test system: Escherichia coli K-12 ML 1410; test: MIC, serial dilution on nutrient agar; format: cell-based; settings: K12ML1410, nutrient agar, 37° C., 18 hours, read-out: MIC
[24] = test system: Bacillus subtilis NRRL B-558; test: MIC, serial dilution on nutrient agar; format: cell-based; settings: NRRLB558, 37° C., 18 hours
[25] = test system: Pseudomonas aeruginosa No. 12; test: MIC, serial dilution on nutrient agar; format: cell-based; settings: NO.12, nutrient agar, 37° C., 18 hours, read-out: MIC
[26] = test system: Mycrococcus flavus FDA 16; test: MIC, serial dilution on nutrient agar; format: cell-based; settings: 18 h
[27] = test system: Proteus rettgeri GN466; test: MIC, serial dilution on nutrient agar; format: cell-based; settings: Providencia rettgeri, GN466; nutrient agar, 37° C., 18 hours; read-out: MIC
[28] = test system: Bacillus subtilis PCI 219; test: MIC, serial dilution on nutrient agar; format: cell-based; settings: PCI219, 37° C., 18 hours
[29] = test system: Providencia Pv 16; test: MIC, serial dilution on nutrient agar; format: cell-based; settings: PV16, nutrient agar, 37° C., 18 hours, read-out: MIC
[30] = test system: Salmonella typhi F63; test: MIC, serial dilution on nutrient agar; format: cell-based; settings: Salmonella enterica, 18 h
[31] = test system: Escherichia coli K-12 1410 R81; test: MIC, serial dilution on nutrient agar; format: cell-based; settings: K121410R81, 18 h
[32] = test system: Staphylococcus epidermidis 109; test: MIC, serial dilution on nutrient agar; format: cell-based; settings: Staphylococcus epidermidis, 109, 18 h
[33] = test system: Proteus rettgeri GN311; test: MIC, serial dilution on nutrient agar; format: cell-based; settings: Providencia rettgeri, GN311, 18 h
[34] = intravenous LD50 in mice; settings: mouse, in vivo, estimated
[35] = test system: Bacillus anthracis; test: microbe, parasite or virus in culture; format: cell-based; settings: 18 h
[36] = test system: Escherichia coli K-12 R5; test: microbe, parasite or virus in culture; format: cell-based; settings: K12R5, 18 h
[37] = test system: Shigella dysenteriae JS11910; test: MIC, serial dilution on nutrient agar; format: cell-based; settings: JS11910, 18 h
[38] = test system: Pseudomonas aeruginosa 99; test: MIC, serial dilution on nutrient agar; format: cell-based; settings: Pseudomonas aeruginosa, 99; nutrient agar, 37° C., 18 hours; read-out: MIC
[39] = test system: Sarcina lutea PCI 1001; test: MIC, serial dilution on nutrient agar; format: cell-based; settings: Micrococcus luteus, PCI1001; nutrient agar, 37° C., 18 hours; read-out: MIC
[40] = test system: Escherichia coli JR66/W677; test: MIC, serial dilution on nutrient agar; format: cell-based; settings: JR66/W677, nutrient agar, 37° C., 18 hours, read-out: MIC
[41] = test system: Klebsiella pneumoniae 22 #3038; test: MIC, serial dilution on nutrient agar; format: cell-based; settings: nutrient agar, 37° C., 18 hours, read-out: MIC

C[C@H]1O[C@H](O[C@@H]2[C@@H](O)[C@H](O[C@H]3O[C@H](CN)CC[C@H]3N)[C@@H](N)C[C@H]2NC(=O)[C@@H](O)CCN)[C@H](O)[C@@H](N)[C@@H]1O [AHB-6"-DDKB, 1-N-(L-4-amino-2-hydroxybutyryl)-6"-deoxydibekacin]
12.5 µg/mL: MIC [10] | MIC [27] | MIC [38]
25 µg/mL: MIC [15] | MIC [25] | MIC [29]
50 µg/mL: MIC [3] | MIC [22] | MIC [33] | MIC [36]
> 80 mg/kg: LD50 [34]
6.25 µg/mL: MIC [4] | MIC [8] | MIC [37]
> 100 µg/mL: MIC [18]
3.13 µg/mL: MIC [7] | MIC [13] | MIC [14] | MIC [17] | MIC [21] | MIC [23] | MIC [39] | MIC [40] | MIC [41]
< 0.2 µg/mL: MIC [1] | MIC [24] | MIC [28]
0.78 µg/mL: MIC [9]
0.39 µg/mL: MIC [16] | MIC [30]
1.56 µg/mL: MIC [2] | MIC [5] | MIC [6] | MIC [11] | MIC [12] | MIC [19] | MIC [20] | MIC [26] | MIC [31] | MIC [32]
0.2 µg/mL: MIC [35]
